What was measured:
[1] = system: bacterial cells following the inhibition of the cleavage of the bacterial murein septum; experiment: Sensitivity of bacterial cells to detergents and high molecular weight antibiotics after inhibition of murein septum cleavage; assay type: cell-based
[2] = system: E. coli MHD52 (deletion of AmiABC); experiment: Growth of E. coli with inhibited murein septum cleavage (MHD52) after addition of agent; assay type: cell-based, Escherichia coli; conditions: LB medium, 37°C, aerobic
Protocol: (§1) Bacteria were cultivated aerobically at 37° C in LB medium (J.H. Miller, Experiments in Molecular Genetics, Cold Spring Harbor Laboratory, Cold Spring Harbor (1972)). Agar plates contained 1.5 % agar (Gibco BRL, Paisley, Scotland). Growth was monitored by optical density readings at 578 nm in an Eppendorf photometer (Eppendorf, Hamburg, Germany). Antibiotics were used at the following concentrations: 50 (µg/ml ampicillin (amp), 50 (µg/ml kanamycin (kan), 20 (µg/ml chloramphenicol (cm) and 12.5 µg/ml tetracyclin (tet).
(§2) At the indicated time point (arrow) deoxycholate (1 g/l) or crystal violet (1 mg/l), respectively, were added. See the results in Fig. 4 (filled circles: wild type E. coli plus deoxycholate; filled triangles: MHD52 plus crystal violet; filled squares: MHD52 plus deoxycholate). Likewise, the cells were grown in the same manner, but at the indicated time point (arrow) vancomycin (20 µg/ml) was added. See the results in Fig. 5 (open circles: wild type E. coli; filled circles: wild type E. coli plus vancomycin; open squares: MHD52; filled squares: MHD52 plus vancomycin).

[3] = system: wild-type E. coli MC1061; experiment: Growth of wild-type E. coli after addition of agent; assay type: cell-based, Escherichia coli; conditions: vancomycin 20 µg/ml; LB medium, 37°C, aerobic; wild type (septum cleavage not inhibited)
Protocol: as §1, §2

Molecule	sensitivity of bacterial cells [1]	further results
Triton X100	significant increase in the sensitivity	
mersacidin	significant increase in the sensitivity	
CN[C@H](CC(C)C)C(=O)N[C@H]1C(=O)N[C@@H](CC(N)=O)C(=O)N[C@H]2C(=O)N[C@H]3C(=O)N[C@H](C(=O)N[C@H](C(=O)O)c4cc(O)cc(O)c4-c4cc3ccc4O)[C@H](O)c3ccc(c(Cl)c3)Oc3cc2cc(c3O[C@@H]2O[C@H](CO)[C@@H](O)[C@H](O)[C@H]2O[C@H]2C[C@](C)(N)[C@H](O)[C@H](C)O2)Oc2ccc(cc2Cl)[C@H]1O [vancomycin]		effect on growth (Fig. 5) ([2]; vancomycin 20 µg/ml, MHD52 (septum cleavage inhibited)): growth controlling effect; effect on growth (Fig. 5) [3]: normal growth
CN(C)c1ccc(C(=C2C=CC(=[N+](C)C)C=C2)c2ccc(N(C)C)cc2)cc1 [crystal violet]		effect on growth (Fig. 4) ([2]; crystal violet 1 mg/l, MHD52): insignificant effect
ramoplanin	significant increase in the sensitivity	

— patent publication EP1336412A1, “Combinations of an antibiotic and a murein hydrolase inhibitor” (priority 2002, dated 2003)
